test system: chloroquine-resistant P. falciparum (FCR3); assay: Isobologram analysis of synergism with chloroquine, hypoxanthine incorporation (FIG. 1); format: cell-based, Plasmodium falciparum; details: IC50 for hypoxanthine incorporation
Description: FIG. 1 illustrates the synergism of 1-(3,4-dichloro-phenoxy)-2,3-dihydro-N,N-dimethyl-1H-Indene-2-methanamine and chloroquine against chloroquine-resistant P. falciparum (FCR3). Isobologram analysis was carried out according to the method of Martin, et al., (1987) Science 235, 899-901 and Berenbaum, (1978) Journal of Infectious Diseases 137, 122-130. […] The X-axis is the IC50 concentration of drug which inhibits hypoxanthine incorporation by 50%) of chloroquine in the absence or presence of 1-(3,4-dichlorophenoxy)-2,3-dihydro-N,N-dimethyl-1H-Indene-2-methanamine while the Y-axis is the IC50 for 1-(3,4-dichlorophenoxy)-2,3-dihydro-N,N-dimethyl-1H-Indene-2-methanamine in the absence or presence of chloroquine.
P. falciparum (clone D6, chloroquine-sensitive; strain FCR3, chloroquine-resistant; and clone W2, multidrug-resistant) was grown in vitro by the method of Trager and Jensen, (1976) Science 193, 673-675.

| Compound | synergism of the combination with chloroquine |
| --- | --- |
| CN(C)CC1Cc2ccccc2C1Oc1ccc(Cl)c(Cl)c1 (stereo not drawn) [1-(3,4-dichlorophenoxy)-2,3-dihydro-N,N-dimethyl-1H-Indene-2-methanamine] | highly synergistic |

test system: P. falciparum; assay: not given; details: recently reported; by interfering with riboflavin metabolism; cited from earlier work

| Compound | P. falciparum growth |
| --- | --- |
| CN(C)CCC=C1c2ccccc2CCc2ccccc21 [amitryptyline] | suppress P. falciparum growth |
| CN(C)CCCN1c2ccccc2CCc2ccccc21 [imipramine] | suppress P. falciparum growth |

test system: P. falciparum (FCR3); assay: Enhancement of chloroquine potency: [3H]-hypoxanthine incorporation into chloroquine-resistant P. falciparum (FCR3) in vitro; format: cell-based, Plasmodium falciparum; details: chloroquine IC50 with compound at 200 ng/ml as percent of chloroquine-alone IC50

| Percent of IC50 of Chloroquine Alone [%] | Compound |
| --- | --- |
| 14 | CN(C)C[C@H]1Cc2ccccc2[C@H]1Sc1ccccc1.O=C(O)C(=O)O (relative stereo) [1 0 0 -- --CH2 -- CH3 CH3 S cis, cis-2,3-dihydro-N,N-dimethyl-1-(phenylthio)-1H-indene-2-methanamine, ethanedioate] |
| 22 | CNC[C@@H]1Cc2ccccc2[C@@H]1Oc1ccccc1C(F)(F)F (relative stereo) [1 0 1 O--CF3 --CH2 -- CH3 H O cis, CIS-2,3-dihydro-N-methyl-1-(2-trifluoromethylphenoxy)-H-indene-2-methanamine ethanedioate (1:1)] |
| 13 | CNC[C@H]1Cc2ccccc2[C@H]1Oc1ccccc1OC (relative stereo) [1 0 1 O--OCH3 --CH2 -- CH3 H O --, cis-2,3-dihydro-1-(2-methoxyphenoxy)-N-methyl-1H-indene-2-methanamine] |
| 68 | CN(C)C[C@@H]1Cc2ccccc2[C@@H]1Oc1ccc(Br)cc1 (relative stereo) [1 0 1 p-Br --CH2 -- CH3 CH3 O cis, CIS-1-(4-romophenoxy)-2,3-dihydro-N,N-dimethyl-1H-indene-2-methanamine ethanedioate] |
| 55 | CN(C)C[C@H]1Cc2ccccc2[C@H]1Oc1ccc(C(F)(F)F)cc1.Cl (relative stereo) [1 0 1 p-CF3 --CH2 -- CH3 CH3 O cis, cis-2,3-dihydro-N,N-dimethyl-1-[4-(trifluoromethyl)-phenoxy]-1H-indene-2-methanamine hydrochloride] |
| 25 | CN(C)C[C@H]1Cc2ccccc2[C@H]1Oc1ccc2c(c1)OCO2.O=C(O)C(=O)O (relative stereo) [1 0 2 --OCH2 O-- --CH2 -- CH3 CH3 O cis, CIS 1-(1,3-benzodioxol-5-yloxy)-2,3-dihydro-N,N-dimethyl-1H-indene-2-methanamine ethanedioate (1:1)] |
| 43 | CN(C)C[C@H]1Cc2ccccc2[C@@H]1Oc1ccc(Cl)c(Cl)c1 (relative stereo) [1 0 2 m,p-(Cl)2 --CH2 -- CH3 CH3 O trans] |
| 75 | CN(C)C[C@@H]1Cc2ccccc2[C@H]1Oc1ccc2c(c1)OCO2.O=C(O)C(=O)O (relative stereo) [TRANS 1-(1,3-benzodioxol-5-yloxy)-2,3-dihydro-N,N-dimethyl-1H-indene-2-methanamine ethanedioate (1:1)] |
| 10 | CN(C)CC1Cc2ccccc2C1Oc1ccccc1 (stereo not drawn) [1 0 0 -- --CH2 -- CH3 CH3 O --, 2,3-dihydro-N,N-dimethyl-1-phenoxy-1H-indene-2-methanamine] |
